# Source: patent US7972611B2, “Fungus-induced inflammation and eosinophil degranulation” (Mayo Foundation for Medical Education and Research, priority 2005, dated 2011)
# Starred links: 1 amine or outer side, 2 acyl side, 3 side chain; linkers in the order of their positions; H or OH if unused. Residues, ends and D or L forms follow the SMILES beside them. CO = O=C([*:1])[*:2]
# B1: Calpastatin (protein, UniProt P20810 1-708, looked up)
# Calpastatin: MNPTETKAIPVSQQMEGPHLPNKKKHKKQAVKTEPEKKSQSTKLSVVHEKKSQEGKPKEHTEPKSLPKQASDTGSNDAHNKKAVSRSAEQQPSEKSTEPKTKPQDMISAGGESVAGITAISGKPGDKKKEKKSLTPAVPVESKPDKPSGKSGMDAALDDLIDTLGGPEETEEENTTYTGPEVSDPMSSTYIEELGKREVTIPPKYRELLAKKEGITGPPADSSKPIGPDDAIDALSSDFTCGSPTAAGKKTEKEESTEVLKAQSAGTVRSAAPPQEKKRKVEKDTMSDQALEALSASLGTRQAEPELDLRSIKEVDEAKAKEEKLEKCGEDDETIPSEYRLKPATDKDGKPLLPEPEEKPKPRSESELIDELSEDFDRSECKEKPSKPTEKTEESKAAAPAPVSEAVCRTSMCSIQSAPPEPATLKGTVPDDAVEALADSLGKKEADPEDGKPVMDKVKEKAKEEDREKLGEKEETIPPDYRLEEVKDKDGKPLLPKESKEQLPPMSEDFLLDALSEDFSGPQNASSLKFEDAKLAAAISEVVSQTPASTTQAGAPPRDTSQSDKDLDDALDKLSDSLGQRQPDPDENKPMEDKVKEKAKAEHRDKLGERDDTIPPEYRHLLDDNGQDKPVKPPTKKSEDSKKPADDQDPIDALSGDLDSCPSTTETSQNTAKDKCKKAASSSKAPKNGGKAKDSAKTTEETSKPKDD
# B2: SEQ ID NO:2: polypeptide of SEQ ID NO:2, Alternaria alternata endoxylanase, recombinantly produced in E. coli (protein, listed as Alternaria brassicicola)
# chain: MHFRGSSIYFGIVALSSTSAVLGAVAPYGQCGGNGFQGETECAQGWSCVKSNDWYSQCINGGGNAPAPPAATGVAPAPVIPSAAPVPSMNASEPVAAPVAVAQPAATGGANGSAPDVAGTGANGAKCSLDAAFKSHGKKYIGVATDQGALSKGKNKEIIVANFGQVTPENSMKWDATEGTEGKFTLDGANALVSFATENKKLVRGHTTVWHSQLPTWVSSITDKTKLEEVMVAHIKKLMSTYAGKVYAWDVVNEIFNEDGSFRSSVFYNVLGENFVATAFATAKAADPEAKLYINDYNLDSPSYAKTKAMASNVKKWVAAGVPIDGIGSQSHLSGSWPISDYPAALKLLCESASECAMTELDIKGGAAADYKTAVTACLDVENCVGVTVWGVSDTDSWIGAAATPLLFDGSFQAKESYNGLCSALA
# B3: papain: cysteine protease (protein, UniProt P00784 134-345, looked up)
# Papain: IPEYVDWRQKGAVTPVKNQGSCGSCWAFSAVVTIEGIIKIRTGNLNEYSEQELLDCDRRSYGCNGGYPWSALQLVAQYGIHYRNTYPYEGVQRYCRSREKGPYAAKTDGVRQVQPYNEGALLYSIANQPVSVVLEAAGKDFQLYRGGIFVGPCGNKVDHAVAAVGYGPNYILIKNSWGTGWGENGYIRIKRGTGNSYGVCGLYTSSFYPVKN
# B4: Der f1: natural mite allergen protease (protein, UniProt P16311 99-321, looked up)
# Peptidase 1: TSACRINSVNVPSELDLRSLRTVTPIRMQGGCGSCWAFSGVAATESAYLAYRNTSLDLSEQELVDCASQHGCHGDTIPRGIEYIQQNGVVEERSYPYVAREQRCRRPNSQHYGISNYCQIYPPDVKQIREALTQTHTAIAVIIGIKDLRAFQHYDGRTIIQHDNGYQPNYHAVNIVGYGSTQGDDYWIVRNSWDTTWGDSGYGYFQAGNNLMMIEQYPYVVIM
# System: eosinophils
# Assay: not given
# Type: cell-based, human
# Settings: not given
# Experimental: FIG. 9. […] Alternaria extract, trypsin, or PMA was pretreated with pepstatin A agarose, control agarose, or APMSF, and added to the PAR-2 peptide substrate (Panel A) or eosinophils (Panel B).
# (§1) To monitor eosinophil function in response to extracts from Alternaria, degranulation of human eosinophils was measured by quantitating released eosinophil-derived neurotoxin (EDN) and/or MBP. In brief, freshly isolated eosinophils were suspended in HBSS with 25 mM HEPES and 0.01% gelatin at 5×10^5 cells/mL. Eosinophils and stimuli were incubated in 96-well tissue culture plates for 3 hours at 37° C. and 5% CO^2. Cell-free supernatants were stored at −20° C. A specific RIA quantitated eosinophil degranulation by measuring the concentration of EDN in the supernatants.
Molecule,"Alternaria-induced eosinophil [Ca2+]i response and degranulation, sensitivity to pertussis toxin",eosinophil degranulation (EDN release) induced by Alternaria extract
pertussis toxin,sensitive,
O=C(O)CN(CCN(CC(=O)O)CC(=O)O)CC(=O)O [EDTA],,inhibited

# Same assay, conditions: 3 hours at 37° C.
row,Molecule,eosinophil degranulation (EDN release) induced by Alternaria extract
1,Cn1cc(C2=C(c3cn(CCCSC(=N)N)c4ccccc34)C(=O)NC2=O)c2ccccc21 [Ro-31-8220],did not inhibit
2,CN(C)CCCn1cc(C2=C(c3c[nH]c4ccccc34)C(=O)NC2=O)c2ccccc21 [GF109203X],did not inhibit
3,O=c1c(-c2ccc(O)cc2)coc2cc(O)cc(O)c12 [Genistein],did not inhibit
4,CC(=O)c1c(O)c(C)c(O)c(Cc2c(O)c3c(c(C(=O)/C=C/c4ccccc4)c2O)OC(C)(C)C=C3)c1O [Rottelrin],did not inhibit
5,CC(C)C[C@H](NC(=O)[C@@H](NC(=O)N[C@@H](Cc1ccccc1)C(=O)O)[C@@H]1CCN=C(N)N1)C(=O)N[C@H](C=O)Cc1ccccc1 [Chymostatin],did not inhibit
6,Cc1ccc(S(=O)(=O)N[C@@H](CCCCN)C(=O)CCl)cc1 [TLCK],did not inhibit
7,CCCCCCCCCCCCCCCCCCNC(=O)OCC(COC(=O)N(Cc1cccc[n+]1CC)C(C)=O)OC (stereo not shown) [CV6209],inhibited
8,CC(C)[C@H](NC(=O)[C@H](CCCNC(=N)N)NC(=O)N[C@@H](Cc1ccccc1)C(=O)O)C(=O)N[C@H](C=O)CCCNC(=N)N [Antipain] ({Phe-CO}-Arg-Val-Arg-aldehyde),did not inhibit
9,Jasplakinlide,inhibited
10,CC(C)C[C@H](NC(=O)[C@@H](O)[C@H](N)Cc1ccccc1)C(=O)O [Bestatin],did not inhibit
11,COc1cccc(-c2cc(=O)c3ccccc3o2)c1N [PD98059],did not inhibit
12,CC(=O)N[C@@H](CC(C)C)C(=O)N[C@@H](CC(C)C)C(=O)N[C@H](C=O)CCCNC(=N)N [Leupeptin],did not inhibit
13,C[S+]([O-])c1ccc(-c2nc(-c3ccncc3)c(-c3ccc(F)cc3)[nH]2)cc1 (stereo not shown) [SB203580],did not inhibit
14,CC(C)C[C@H](NC(=O)[C@H]1O[C@@H]1C(=O)O)C(=O)NCCCCN=C(N)N [E64],did not inhibit
15,COc1cc2c(c(OC)c1OC)-c1ccc(OC)c(=O)cc1[C@@H](NC(C)=O)CC2 [Colchitin],did not inhibit
16,O=C(O)CN(CCOCCOCCN(CC(=O)O)CC(=O)O)CC(=O)O [EGTA],inhibited
17,C=C1[C@@H](C)[C@H]2[C@H](Cc3ccccc3)NC(=O)[C@]23OC(=O)/C=C/[C@H](O)CCC[C@@H](C)C/C=C/[C@H]3[C@@H]1O [Cytochalasin B],did not inhibit
18,C=CC[C@@H]1/C=C(\C)C[C@H](C)C[C@H](OC)[C@H]2O[C@@](O)(C(=O)C(=O)N3CCCC[C@H]3C(=O)O[C@H](/C(C)=C/[C@@H]3CC[C@@H](O)[C@H](OC)C3)[C@H](C)[C@@H](O)CC1=O)[C@H](C)C[C@@H]2OC [FK 506],did not inhibit
19,Aprotinin,did not inhibit
20,Cl.NCCc1ccc(S(=O)(=O)F)cc1 [Pefabloc SC],did not inhibit
21,[La] [Lanthunum],inhibited
22,CC(C)C[C@H](NP(=O)(O)O[C@@H]1O[C@@H](C)[C@H](O)[C@@H](O)[C@H]1O)C(=O)N[C@@H](Cc1c[nH]c2ccccc12)C(=O)O [Phosphoramidon],did not inhibit
23,NCCCCCCNS(=O)(=O)c1cccc2c(Cl)cccc12 [W-7],did not inhibit
24,COC[C@H]1OC(=O)c2coc3c2[C@@]1(C)C1=C(C3=O)[C@@H]2CCC(=O)[C@@]2(C)C[C@H]1OC(C)=O [Wortmannin],did not inhibit
25,CCN(CC)CCCC(C)Nc1ccnc2cc(Cl)ccc12 (stereo not shown) [Chloroquine],did not inhibit
26,heparin,inhibited
27,B1,did not inhibit

# System: human eosinophils
# Assay: Eosinophil degranulation (EDN release) and activation by fungal extracts and proteins
# Type: cell-based
# Settings: eosinophils incubated with stimulus
# Experimental: FIG. 5. Effects of fungi on eosinophil degranulation. Eosinophils were incubated with culture extracts of various fungi for 3 hours.
# FIG. 21. Effects of Trichoderma xylanase on eosinophil degranulation (Panel A). Effects of Trichoderma xylanase on IL-5 production in mouse airways (Panel B). Panel A: Eosinophils were incubated with various concentrations of Trichoderma xylanase for 3 hours. EDN concentrations in the supernatants were measured by RIA as an indicator of degranulation. Panel B: Naive BALB/c mice were exposed intranasally to various doses of Trichoderma xylanase. After 12 hours, BAL fluids were collected and the concentrations of IL-5 were measured by ELISA. Mean±range, n=2.
# FIG. 25. Partial characterization of Alternaria extract. A, Before incubation with eosinophils, aliquots of 100 μg/mL Alternaria and 10 ng/mL IL-5 were heated at 37, 56, or 100° C. for 30 min or were treated at 4° C. for 30 min. Eosinophils were incubated in duplicate with these treated stimuli for 3 hours at 37° C. […] The molecular weight calibration of the column is shown above the elution profile.
# The following was performed to determine whether human eosinophils have an innate capacity to respond to environmental fungal organisms. Human eosinophils were incubated with extracts from common environmental airborne fungi.
# as §1
row,Molecule,eosinophil degranulation (EDN release)
1,B2,stimulated eosinophil degranulation

# Same assay, conditions: through PAR-2
row,Molecule,activation of human eosinophils by proteases
1,B3,activated
2,B4,activated

# Same assay, conditions: treatment at 56° C. or lower temperatures
row,Molecule,loss of activity to induce EDN release after treatment
1,IL-5: cytokine,not

# Same assay, conditions: treatment at 100° C.
row,Molecule,activity to induce EDN release after heat treatment
1,IL-5: cytokine,abolished
